Data on six compounds can be found in patent US10208011B2, “Benzothiophene estrogen receptor modulators” (G1 Therapeutics, Inc., priority 2017, dated 2019).

Assay [1] concerns the target estrogen receptor α in MCF7 cells (Homo sapiens (Human), UniProt P03372). In words: Estrogen Receptor (ER) Degradation Assay (In-Cell Western). The assay is classed as cell-based. Particulars: for IC50: 24 hours, In-Cell Western; for % Estrogen Receptor Remaining: vehicle set to 100%. The protocol:
A screening strategy was implemented utilizing an In-Cell Western assay to measure their ability to degrade the estrogen receptor in vitro. MCF7 cells, which are estrogen receptor positive, were plated at a cell density of […] into black walled clear bottom 96-well plates. Cells were incubated in phenol red free Dulbecco's Modified Eagle Media (DMEM) supplemented with 8% charcoal-stripped fetal bovine calf serum for 24 hours in a humidified 37° C. incubator. Concentrated stock compounds were diluted to 10× in complete media. Compounds were added to the plated cells in a dose-dependent manner ranging from 1E-12 to 1E-05 M and incubated for an additional 24 hours at 37° C. Culture medium was removed from the culture plates by gentle inversion. Cells were fixed in 4% paraformaldehyde in 1× phosphate buffered saline-calcium magnesium free (PBS-CMF) for 15 minutes at room temperature, washed 3 times for 5 minutes each in 1×PBS-CMF. Cells were permeabilized in immunofluorescence (IF) blocking buffer (Cell Signaling #12411) containing 0.3% Triton X100. Cells were washed 3 times for 5 minutes each in 1×PBS-CMF and incubated in estrogen receptor α (D6R2W) rabbit primary antibody (Cell Signaling #13258) diluted 1:300 in IF antibody dilution buffer (Cell Signaling #12378). Cells were washed 3 times for 5 minutes each in 1×PBS-CMF and stained with goat anti-rabbit (Biotium #CF770) secondary antibody diluted 1:2000 in IF antibody dilution buffer and normalizing stain CellTag 700 diluted 1:500 (Licor #926-41090). ER protein expression was assessed by the Licor Odyssey CLx imaging system using Image Studio v5.2. Data is processed utilizing GraphPad Prism 7 by subtracting background from the vehicle and setting the vehicle to 100% ER activity, followed by comparing treated samples to vehicle. This procedure was used to produce the graph in FIG. 2, FIG. 3, FIG. 4, FIG. 5, FIG. 6, FIG. 7, and FIG. 8.
(§1) In the below table for the Estrogen Receptor Degradation Assay and the Human ERα Reporter Assay: […]

In assay [2] the target is human estrogen receptor (ERα) (Homo sapiens (Human), UniProt P03372). In words: Human ERα Reporter Assay (Indigo Biosciences). The format is cell-based. Conditions: antagonist mode, 17β-estradiol 8E-10 M, 24 hours. The protocol: All reagents used in this assay was supplied in the Human ERα Reporter Assay by Indigo Biosciences # IB00401. In an effort to screen selective estrogen receptor degraders (SERDs), the Human ERα Reporter Assay, supplied by Indigo Biosciences, was utilized to quantify antagonist functional activity against the human estrogen receptor. Reporter cells were thawed at 37° C. and added to pre-warmed to 37° C. cell recovery medium (CRM). Stock concentration of 17β-estradiol was serially diluted in CRM. Diluted 17β-estradiol was added to CRM containing reporter cells resulting in a working concentration of 1.6 nM (2×). Cells plus 17β-estradiol were dispensed in a kit-supplied white walled 96-well plate. Concentrated stocks of test compounds were diluted to 2× working concentrations in cell screening medium (CSM). 2× concentrated compounds were added to the plated cells in a dose-dependent manner resulting in a final concentration range of 1E-11 to 1E-5 M and a final 17β-estradiol concentration of 8E-10 M. Assay plates were incubated for 24 hours in a humidified 37° C. incubator. Culture medium was removed from the assay plates by inversion. Detection substrate and buffer was warmed to room temperature, mixed thoroughly, and immediately added to the assay plates. Assay plates were incubated for 15 minutes at room temperature protected from light. Luminescence was measured in a Synergy HTX luminescence plate reader. Data is processed utilizing GraphPad Prism 7 by graphing the relative light units measured at each compound concentration. This procedure was used to produce the graph in FIG. 1, FIG. 9, FIG. 10, FIG. 11, FIG. 12, FIG. 13, and FIG. 14.
as §1

estrogen receptor α in MCF7 cells, sequence (P03372 whole entry): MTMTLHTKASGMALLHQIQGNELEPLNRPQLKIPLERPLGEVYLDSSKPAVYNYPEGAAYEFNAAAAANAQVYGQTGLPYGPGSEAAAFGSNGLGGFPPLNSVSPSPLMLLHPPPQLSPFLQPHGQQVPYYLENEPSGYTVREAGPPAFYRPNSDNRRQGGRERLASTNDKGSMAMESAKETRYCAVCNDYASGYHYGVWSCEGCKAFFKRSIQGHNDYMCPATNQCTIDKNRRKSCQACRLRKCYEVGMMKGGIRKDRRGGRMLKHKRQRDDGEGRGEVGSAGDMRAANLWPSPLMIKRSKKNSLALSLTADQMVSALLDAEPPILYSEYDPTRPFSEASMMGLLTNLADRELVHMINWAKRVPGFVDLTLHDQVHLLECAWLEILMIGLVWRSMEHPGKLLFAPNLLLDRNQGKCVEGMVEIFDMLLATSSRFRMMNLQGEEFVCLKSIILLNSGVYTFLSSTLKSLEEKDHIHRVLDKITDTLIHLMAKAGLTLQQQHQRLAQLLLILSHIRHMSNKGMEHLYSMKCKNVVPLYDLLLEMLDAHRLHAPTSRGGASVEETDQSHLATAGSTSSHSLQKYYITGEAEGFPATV
human estrogen receptor (ERα), sequence (P03372 whole entry): as above

As to `Cc1cc(F)cc(C)c1C(=O)c1sc2cc(O)ccc2c1Oc1ccc(CCN2CC(CF)C2)cc1` [Compound 117, (4-fluoro-2,6-dimethylphenyl)(3-(4-(2-(3-(fluoromethyl)azetidin-1-yl)ethyl)phenoxy)-6-hydroxybenzo[b]thiophen-2-yl)methanone], in assay [1], the 50% inhibitory concentration (IC50) was < 1000 nM and the “% Estrogen Receptor Remaining” value is recorded as “*** (*** denotes 41-70% Estrogen Receptor remaining)”. Moreover, the 50% inhibitory concentration (IC50) in assay [2] is < 1000 nM.
Consider `Cc1cc(F)cc(C)c1C(=O)c1sc2cc(O)ccc2c1Oc1ccc(CCN)cc1` [Compound 104, (3-(4-(2-aminoethyl)phenoxy)-6-hydroxybenzo[b]thiophen-2-yl)(4-fluoro-2,6-dimethylphenyl)methanone], for which, in assay [1], the concentration for half-maximal inhibition (IC50) is < 1000 nM and the “% Estrogen Receptor Remaining” value is “*** (*** denotes 41-70% Estrogen Receptor remaining)”. The IC50 in assay [2] is < 1000 nM.
For the compound `Cc1cc(F)cc(C)c1C(=O)c1sc2cc(O)ccc2c1Oc1ccc(CN(C)C)cc1` [Compound 114, (3-(4-((dimethylamino)methyl)phenoxy)-6-hydroxybenzo[b]thiophen-2-yl)(4-fluoro-2,6-dimethylphenyl)methanone], in assay [1], the IC50 is < 1000 nM and the “% Estrogen Receptor Remaining” value is listed as “** (** denotes 71-90% Estrogen Receptor remaining)”. For the same compound, in assay [2], the IC50 is < 1000 nM.
Take `Cc1cc(F)cc(C)c1C(=O)c1sc2cc(O)ccc2c1Oc1ccc(C2CCCNC2)cc1` (stereo not drawn) [Compound 103, (4-fluoro-2,6-dimethylphenyl)(6-hydroxy-3-(4-(piperidin-3-yl)phenoxy)benzo[b]thiophen-2-yl)methanone]: the results for the IC50 in assay [1] and in assay [2] were < 50000 nM and < 1000 nM, respectively. The “% Estrogen Receptor Remaining” value in assay [1] was “**** (**** denotes 0-40% Estrogen Receptor remaining)”.
As for `Cc1cc(F)cc(C)c1C(=O)c1sc2cc(O)ccc2c1Oc1ccc(CCN2CC[C@H](C)C2)cc1` [Compound 118, (S)-(4-fluoro-2,6-dimethylphenyl)(6-hydroxy-3-(4-(2-(3-methylpyrrolidin-1-yl)ethyl)phenoxy)benzo[b]thiophen-2-yl)methanone], the IC50 in assay [1] and in assay [2] was < 1000 nM each time. Besides, the “% Estrogen Receptor Remaining” value in assay [1] was “*** (*** denotes 41-70% Estrogen Receptor remaining)”.
`CCNCCc1ccc(Oc2c(C(=O)c3c(C)cc(F)cc3C)sc3cc(O)ccc23)cc1` [Compound 100, (3-(4-(2-(ethylamino)ethyl)phenoxy)-6-hydroxybenzo[b]thiophen-2-yl)(4-fluoro-2,6-dimethylphenyl)methanone]: in assay [1], the concentration for half-maximal inhibition (IC50) was < 1000 nM and the “% Estrogen Receptor Remaining” value is on record as “**** (**** denotes 0-40% Estrogen Receptor remaining)”. The half-maximal inhibitory concentration (IC50) in assay [2] was < 1000 nM.
